In PMC4460047 (PLoS ONE, 2015):
Several values for one entry are separate records, joined by “and”; a condition that tells them apart may be missing. Equal values may be shown once. Marks after values point to notes of the source that are not given here.

Legend:
[1] = Chemical stability in phosphate buffered saline pH 7.4; assay type: physicochemical; details: for %Compd at 6 h, pH 7.4: percent remaining after 6 h of incubation at 37°C in PBS buffer pH 7.4; for L- and D-aspartate derivatives produced by deamidation at the side chain: buffer pH 7.4, data not shown
Protocol: (§1) The chemical and metabolic stability of PEA and all prodrugs were studied by incubating each compound (5 μL of a […] solution in DMSO, or DMSO as control) with 495 μL of 10 mM phosphate buffered saline pH 7.4 for chemical stability, 80% v/v rat plasma or 20% w/v rat liver homogenate prepared accordingly to previously described procedures for metabolic stability, reaching a final concentration of 50 nm for the test compound.
(§2) Rat plasma and liver samples were pre-incubated at 37°C for 10 min before adding the compounds. After incubation for different time periods (0, 15, 30, 60, 120, 240 and 360 min), samples were deproteinized by adding 100 μL of acetonitrile with 75 nmol L^-1 IS (PEA-d4). The samples were centrifuged (14 000 g, 10 min, 4°C), and the supernatants were analyzed by HPLC–ESI–MS/MS. For each tested compound, a multiple reaction monitoring (MRM) ESI–MS/MS method was set up in order to monitor the relative concentration of compound and released PEA at the different incubation times, compared to the time t = 0, in rat plasma and liver homogenate.

[2] = Stability in 20% w/v rat liver homogenate; assay type: in vitro ADME; details: 37°C; for half-life at 50 nM / remaining at 2 h, 50 nM: rat, 20% w/v rat liver homogenate; for half-life at 50 nM: read-out: Rat Liver Compd t 1/2; for remaining at 2 h, 50 nM: read-out: Percent remaining after 2 h incubation in rat liver homogenate
Protocol: as §1, §2

[3] = Stability and PEA release in 80% v/v rat plasma; assay type: in vitro ADME; details: for half-life at 50 nM: rat, pH 7.4, 80% v/v rat plasma, read-out: Rat Plasma Compd t 1/2; for half-life at 50 nM / Rat Plasma Compd t 1/2: 50 nm compound; for remaining at 6 h, 50 nM: pH 7.4, read-out: Percent remaining after 6 h incubation in rat plasma
Protocol: as §1, §2
Cmax and tmax in rat plasma were read from the raw data as the coordinates of the highest concentration observed. A Thermo TSQ Quantum triple-quadrupole mass spectrometer (Thermo Italia, Milan, Italy) with heated electrospray ionization (H-ESI) ion source was used for mass detection and analysis. Mass spectrometric analyses were done in positive ion mode. H-ESI interface parameters were set as follows: probe middle (D) position; capillary temperature 270°C; spray voltage 3.0 kV. Nitrogen was used as nebulizing gas at the following pressure: sheath gas 35 psi; auxiliary gas 15 arbitrary units (a.u.). Argon was used as the collision gas at a pressure of approximately 1.5 mtorr (1 torr = 133.3 Pa). For quantitative analysis, the following parent ion → product ions transitions were selected: PEA (1): m/z 300.2 → m/z 62.3 (tube lens 60 V; collision energy 19 eV); PEA-d4 (Internal Standard): m/z 304.2 → m/z 66.3 + m/z 287.2 (tube lens 72 V; collision energy 15, 12 eV). MRM transitions, tube lens voltages and collision energies for compounds 3–5, 7–9, 19–24, 26–31, and 33 are reported in the S1 File. […] The coefficients of correlation (r^2) were >0.99 for all curves. The LOQ was 1 nmol mL^−1 for all analytes. Extraction efficiency was determined by comparing the peak area ratio of spiked samples at three concentration levels (low, intermediate, and high) to those of extracted charcoal treated blank plasma spiked with the corresponding concentrations. The mean extraction recovery ranged from 109% to 91% for all compounds. The specificity of the assay was evaluated by comparison of HPLC–ESI–MS/MS chromatograms of the analytes at the LOQ to those of charcoal treated blank plasma samples in triplicate.

[4] = Plasma levels after oral administration to Wistar rats; assay type: in vivo, rat
Protocol: Twenty-seven male Wistar rats (Charles River Laboratories, Italy), 150–250 g in weight, were used in the study. Number of animals was calculated by G-power a priori analysis (α = 0.05 and β = 0.05). Animals were housed in group in policarbonate cages (Tecniplast, Italy) in a conventional facility with controlled temperature 22±1°C, a relative humidity of 55±5%, and a 12 h light/dark cycle (6:00 am to 6:00 pm). The rats were provided standard pellet diet (4RF21 GLP Mucedola, Italy) and water ad libitum throughout the study. The experiments were started only after acclimatization of animals to the laboratory conditions. Before the experiments, rats were fasted for 18 h, with free access to drinking water. Animals were randomized in three experimental groups (nine animals for each group) receiving respectively L-Val-PEA (20), D-Val-PEA (28) and PEA (1).
The day of the experiments substances were turned into a corn oil suspension, after ultrasound and vortexing and they were administered to rats between 8.00 and 10.00 am by gastric gavage at the equimolar doses of 145 mg kg^-1 for L- and D-Val-PEA (20, 28) and 100 mg kg^-1 of PEA (1). Blood samples were collected via sub-tongue puncture from each anaesthetized rat (2% isofluran in air) to minimize any suffering. Blood samples of 0.2 mL were collected before treatment and at 15, 30, 60, 120, 240, 360 and 480 min post-dosing into EDTA-treated tubes (Sarstedt, Germany), immediately centrifuged (5000 rpm, 10 min, 4°C; refrigerated microcentrifuge Z 216 MK, Hermle LaborTechnik). Resulting plasma was immediately processed by protein precipitation with ice-cold acetonitrile containing the IS 75 nmol L^-1 (PEA-d4) and analyzed as previously described. AUC values were calculated employing the software add-ons of Microsoft Excel.

[5] = p.o., PEA 100 mg kg-1, 20, 28 145 mg kg-1

Molecule	%Compd at 6 h, pH 7.4 [1]	half-life at 50 nM ([2]; rat liver homogenate) [min]	half-life at 50 nM ([3]; 80% v/v rat plasma, 37°C) [min]	other results
CCCCCCCCCCCCCCCC(=O)NCCOC(=O)OCOC(=O)C(C)C [compound 4, Isobutyroyloxymethyl 2-(palmitoylamino)ethyl carbonate]	84 ± 1%	< 1	1.1 ± 0.2	–
CCCCCCCCCCCCCCCC(=O)NCCOC(=O)OCOC(=O)C1CCCCC1 [compound 5, (Cyclohexanelcarboxyloyloxy)methyl 2-(palmitoylamino)ethyl carbonate]	84 ± 1%	1.2 ± 0.2	5	Rat Plasma Compd t 1/2 ([3]; 80% v/v rat plasma, 37°C): 5.1 ± 0.5 min
CCCCCCCCCCCCCCCC(=O)NCCOC(=O)[C@@H](N)[C@@H](C)CC.Cl [compound 21, 2-(Palmitoylamino)ethyl L-isoleucinate hydrochloride]	103 ± 6%	–	205 ± 16	remaining at 2 h, 50 nM ([2]; 2 h): 65 ± 5%; Increase in plasma half-life relative to L-Ala-PEA ([3]; rat plasma): 200 fold
CCCCCCCCCCCCCCCC(=O)NCCOC(=O)[C@H](N)CC(N)=O.Cl [compound 27, 2-(Palmitoylamino)ethyl D-asparaginate hydrochloride]	3.5 ± 0.3%	55 ± 4	14 ± 1	L- and D-aspartate derivatives produced by deamidation at the side chain [1]: about 1%
CCCCCCCCCCCCCCCC(=O)NCCOC(=O)OCOC(C)=O [compound 3, Acetoxymethyl 2-(palmitoylamino)ethyl carbonate]	86 ± 1%	< 1	< 1	–
CCCCCCCCCCCCCCCC(=O)N[C@H](C)COC(=O)[C@@H](N)C(C)C.Cl [compound 33, (2R)-2-(palmitoylamino)propyl L-valinate hydrochloride]	93 ± 4%	38	190 ± 3	Rat plasma half-life relative to L-Val-PEA (20) ([3]; rat plasma): 4 fold
CCCCCCCCCCCCCCCC(=O)NCCOC(=O)[C@@H](N)CC(=O)O.Cl [compound 26, 1-(2-(Palmitoylamino)ethyl) L-aspartate hydrochloride]	85 ± 4%	–	172 ± 2	remaining at 2 h, 50 nM ([2]; 2 h): 66 ± 5%
CCCCCCCCCCCCCCCC(=O)NCCOC(=O)N[C@@H](C)C(=O)O [compound 8, N-(2-Palmitoylamino-ethyloxy)carbonyl-L-alanine]	103 ± 3%	29 ± 3	–	remaining at 6 h, 50 nM ([3]; 80% v/v rat plasma, 37°C, 6 h): 96 ± 2%
CCCCCCCCCCCCCCCC(=O)NCCOC(=O)[C@@H](N)C(C)C.Cl [compound 20, 2-(palmitoylamino)ethyl L-valinate hydrochloride]	91 ± 2%	26 ± 1	46 ± 3	AUC(0-t) ([4]; male, Wistar, rat, plasma, po, administered compound, p.o., mean±SEM, n = 9, read-out: AUC0- 480 (converted)): 129 ng·h/mL; concentration at 15 min ([4]; male, rat, plasma, po, p.o. 145 mg kg-1, Wistar rats, mean ± SEM, n = 9, read-out: Prodrug Conc in plasma, 15 min): 612 nM; concentration at 30 min ([4]; male, rat, plasma, po, p.o. 145 mg kg-1, Wistar rats, mean ± SEM, n = 9, read-out: Prodrug Conc in plasma, 30 min): 212 nM; concentration at 60 min ([4]; male, rat, plasma, po, p.o. 145 mg kg-1, Wistar rats, mean ± SEM, n = 9, read-out: Prodrug Conc in plasma, 60 min): 35.8 nM; concentration at 120 min ([4]; male, rat, plasma, po, p.o. 145 mg kg-1, Wistar rats, mean ± SEM, n = 9, read-out: Prodrug Conc in plasma, 120 min): 22.2 nM; concentration at 240 min ([4]; male, rat, plasma, po, p.o. 145 mg kg-1, Wistar rats, mean ± SEM, n = 9, read-out: Prodrug Conc in plasma, 240 min): 7.1 nM; concentration at 360 min ([4]; male, rat, plasma, po, p.o. 145 mg kg-1, Wistar rats, mean ± SEM, n = 9, read-out: Prodrug Conc in plasma, 360 min): 2.7 nM; concentration at 480 min ([4]; male, rat, plasma, po, p.o. 145 mg kg-1, Wistar rats, mean ± SEM, n = 9, read-out: Prodrug Conc in plasma, 480 min): 9.3 nM; Cmax of administered compound in rat plasma [4, 5]: 612 nm; Time of Cmax of administered compound in rat plasma [4, 5]: 15 min; Increase in plasma half-life relative to L-Ala-PEA ([3]; rat plasma): 46 fold
(S)-α-methyl-PEA [compound 30]	96 ± 3%	–	–	Percent remaining after 2 h incubation in rat liver homogenate ([2]; 2 h): 79 ± 6% ^f; Percent remaining after 6 h incubation in rat plasma ([3]; 80% v/v rat plasma, 37°C, 6 h): 80 ± 4% ^e
CCCCCCCCCCCCCCCC(=O)NCCOC(=O)NCC(=O)O [compound 7, N-(2-Palmitoylamino-ethyloxy)carbonyl-glycine]	101 ± 1%	23 ± 1	–	remaining at 6 h, 50 nM ([3]; 80% v/v rat plasma, 37°C, 6 h): 96 ± 4%
CCCCCCCCCCCCCCCC(=O)NCCOC(=O)[C@@H](N)Cc1c[nH]c2ccccc12.Cl [compound 22, 2-(Palmitoylamino)ethyl L-tryptophanate hydrochloride]	96 ± 1%	~36	~5	Rat Plasma Compd t 1/2 ([3]; 80% v/v rat plasma, 37°C): 4.5 ± 0.5 min
CCCCCCCCCCCCCCCC(=O)NCCOC(=O)N[C@H](C(=O)O)C(C)C [compound 9, N-(2-Palmitoylamino-ethyloxy)carbonyl-L-valine]	99 ± 1%	–	–	remaining at 2 h, 50 nM ([2]; 2 h): 92 ± 5%; remaining at 6 h, 50 nM ([3]; 80% v/v rat plasma, 37°C, 6 h): 98 ± 1%
CCCCCCCCCCCCCCCC(=O)N[C@H](C)CO [compound 31, (R)-α-methyl-PEA]	95 ± 2%	–	–	remaining at 2 h, 50 nM ([2]; 2 h): 87 ± 1%; remaining at 6 h, 50 nM ([3]; 80% v/v rat plasma, 37°C, 6 h): 82 ± 4%
CCCCCCCCCCCCCCCC(=O)NCCOC(=O)[C@H](C)N.Cl [compound 19, 2-(palmitoylamino)ethyl L-alaninate hydrochloride]	64 ± 5%	~1	~1	Rat Liver Compd t 1/2 ([2]; rat liver homogenate): 1.4 ± 0.5 min
CCCCCCCCCCCCCCCC(=O)NCCOC(=O)[C@@H](N)CCC(N)=O.Cl [compound 24, 2-(Palmitoylamino)ethyl L-glutaminate hydrochloride]	61 ± 3%	~80	18 ± 1	–
CCCCCCCCCCCCCCCC(=O)NCCOC(=O)[C@@H](N)CC(N)=O.Cl [compound 23, 2-(Palmitoylamino)ethyl L-asparaginate hydrochloride]	3% and 3.3 ± 0.3%	24 ± 1	~9	L- and D-aspartate derivatives produced by deamidation at the side chain [1]: about 1%; half-life at 50 nM ([1]; phosphate buffered saline, pH 7.4, read-out: t 1/2 in buffered solution at pH 7.4): ~3.3 min
CCCCCCCCCCCCCCCC(=O)NCCOC(=O)C[C@H](N)C(=O)O.Cl [compound 29, 4-(2-(Palmitoylamino)ethyl) L-aspartate hydrochloride]	83 ± 3%	21 ± 1	262 ± 35	–
